Experimental data taken from PMC12209699, “Waxy‐ or Putty‐Like Materials as a Novel Drug Preparation for Synthetic Cannabinoid Receptor Agonists: Detection in Prisons and In Vitro Cannabinoid Receptor Activity” (Drug Testing and Analysis, 2024).
Read-outs that look alike come from different tables or passages of the source.

What was measured:
[1] = tested on: CB1; details: ref [4], [60], cited from earlier work; for EC50: earlier in vitro data, read-out: EC 50 at CB1; for E max at CB1: normalized to CP55,940
[2] = biological target: CB1 receptor (Homo sapiens, UniProt P21554); experiment: NanoBiT βarr2 recruitment bioassay at CB1 (HEK 293T cells stably expressing CB1‐βarr2); details: for E max at CB1: normalized to E max of CP55,940 (set at 100%)
[3] = biological target: CB2 receptor (Homo sapiens, UniProt P34972); experiment: NanoBiT βarr2 recruitment bioassay at CB2 (HEK 293T cells stably expressing CB2‐βarr2); details: for E max at CB2: normalized to E max of CP55,940 (set at 100%)
Chain of CB2 receptor (P34972 whole entry): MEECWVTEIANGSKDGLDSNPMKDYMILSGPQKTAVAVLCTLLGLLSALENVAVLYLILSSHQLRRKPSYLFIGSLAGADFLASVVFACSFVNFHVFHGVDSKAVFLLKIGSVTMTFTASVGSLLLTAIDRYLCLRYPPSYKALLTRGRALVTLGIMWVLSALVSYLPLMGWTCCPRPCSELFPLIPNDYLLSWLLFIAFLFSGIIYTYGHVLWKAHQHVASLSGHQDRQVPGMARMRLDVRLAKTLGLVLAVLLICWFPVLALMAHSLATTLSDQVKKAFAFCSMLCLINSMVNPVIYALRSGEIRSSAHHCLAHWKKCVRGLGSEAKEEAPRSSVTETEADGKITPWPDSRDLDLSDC
Chain of CB2 receptor (P32121 whole entry partner): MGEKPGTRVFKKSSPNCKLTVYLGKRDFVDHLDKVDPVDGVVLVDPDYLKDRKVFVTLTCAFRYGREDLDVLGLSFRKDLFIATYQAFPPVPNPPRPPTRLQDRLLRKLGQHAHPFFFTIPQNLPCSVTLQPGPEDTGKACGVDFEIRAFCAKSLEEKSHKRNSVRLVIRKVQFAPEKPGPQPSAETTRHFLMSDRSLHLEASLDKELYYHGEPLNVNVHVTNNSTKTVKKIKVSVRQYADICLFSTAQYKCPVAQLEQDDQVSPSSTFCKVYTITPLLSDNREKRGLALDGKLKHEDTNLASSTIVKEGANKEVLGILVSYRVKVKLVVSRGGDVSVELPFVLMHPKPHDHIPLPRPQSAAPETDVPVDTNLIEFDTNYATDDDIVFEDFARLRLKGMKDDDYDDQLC

Chain of CB1 receptor (P21554 whole entry): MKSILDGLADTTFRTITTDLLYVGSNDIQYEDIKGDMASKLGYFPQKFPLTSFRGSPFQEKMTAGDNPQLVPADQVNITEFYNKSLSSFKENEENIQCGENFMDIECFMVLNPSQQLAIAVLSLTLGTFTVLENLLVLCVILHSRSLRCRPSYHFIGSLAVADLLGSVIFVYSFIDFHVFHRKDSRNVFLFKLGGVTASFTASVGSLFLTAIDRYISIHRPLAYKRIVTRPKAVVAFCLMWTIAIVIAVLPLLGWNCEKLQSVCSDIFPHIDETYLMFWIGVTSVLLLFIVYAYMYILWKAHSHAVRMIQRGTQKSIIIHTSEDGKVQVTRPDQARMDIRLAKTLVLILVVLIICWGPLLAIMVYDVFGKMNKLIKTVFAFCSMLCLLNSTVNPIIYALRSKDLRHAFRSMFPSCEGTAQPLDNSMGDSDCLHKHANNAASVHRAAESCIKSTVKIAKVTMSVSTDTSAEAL
Chain of CB1 receptor (P32121 whole entry partner): as the sequence (P32121 whole entry partner) above

CCCCn1nc(C(=O)N[C@H](C(N)=O)C(C)(C)C)c2ccccc21 [ADB‐BUTINACA]
EC50 [1]: 19 nM | E max at CB1 [1]: 728%

CCCCCn1cc(C(=O)c2cccc3ccccc23)c2ccccc21 [JWH‐018]
E max at CB1 ([2]; interval in brackets): 342 (300–385) % | EC50 ([2]; read-out: EC 50 at CB1, βarr2 recruitment, three‐parameter logistic fit, interval in brackets): 18.8 nM | E max at CB2 ([3]; interval in brackets): 71.9 (66–77.9) % | EC50 ([3]; read-out: EC 50 at CB2, βarr2 recruitment, three‐parameter logistic fit, interval in brackets): 5.9 nM

C=CCCCn1nc(C(=O)N[C@H](C(=O)OC)C(C)(C)C)c2ccccc21 [MDMB‐4en‐PINACA]
EC50 [1]: 1.88 nM | E max at CB1 [1]: 679%

COC(=O)[C@@H](NC(=O)c1n[nH]c2ccccc12)C(C)(C)C [MDMB‐INACA]
EC50 [2]: 6810 nM | E max at CB1 ([2]; interval in brackets): 268 (233–305) % | EC50 [3]: 55.2 nM | E max at CB2 ([3]; interval in brackets): 150 (134–167) %
